Measurements from publication PMC8891108, “Development and characterization of anti-fibrotic natural compound similars with improved effectivity” (Basic Research in Cardiology, 2022).
pEC50: −log10 of the molar value. Each block holds one compound with its values, some of them ahead of it.

Tests used:
Assay type in all cases: cell-based
[1] = system: human cardiac fibroblasts (HCF); assay: nCounter Fibrosis Panel mRNA profiling of HCF; conditions: 24 h treatment
Protocol: Briefly, 100 ng/5µL isolated total RNA of HCF after 24 h treatment (RIN > 7.5 and […] > 88%) was mixed with the hybridization Master Mix and incubated at 65 °C for 20 h before loading on a nCounter® FLEX (Department of Pathology, Hannover Medical School, Germany). All run files (.RCC) were compiled into a single experiment using the nSolver analysis software. […] Reference genes for normalization were determined by nSolver using all samples (ACAD9, ARMH3, CNOT10, GUSB, MTMR14, NOL7, NUBP1, PGK1, PPIA, RPLP0, see supplemental Fig. 4e, f). We then used the Advanced analysis plugin (v2.0.115) including LOT as confounder variable and BY adjusted p value < 0.05 for identification of central deregulated pathways. Additionally, normalized counts were further analysed with GraphPad Prism using multiple unpaired t tests with FDR ≤ 5% after BKY adjustment and log2 |FC| ≥ 1.

[2] = system: human living myocardial slices; assay: Ex vivo human living myocardial slices, qPCR gene expression; conditions: 48 h
Description: Myocardial slices were generated from human left ventricular heart specimens taken from failing hearts at the time of transplantation. Tissue was obtained from the Clinic for Cardiac, Thoracic, Transplant and Vascular Surgery at the Hannover Medical School (MHH), Hannover, Germany. Patients provided informed consent to the scientific use of the explanted tissue.
The preparation and culture of myocardial slices has been described before. Briefly, human heart specimens were sliced into 300 µm thick slices using a vibrating microtome (Campden Instruments, #7000smz-2) while in ice-cold 30 mM 2,3-butanedione monoxime + 1 mM D-glucose + 10 mM HEPES + 6 mM KCl + 140 mM NaCl + 1 mM MgCl2 + 1.8 mM CaCl2 (cardioplegic Tyrode’s solution), before being trimmed into approx. 7 × 7 mm pieces of aligned muscle fibres.
After 48 h in culture, myocardial slices were frozen in liquid nitrogen and stored at −80 °C for further gene expression analysis.
A mix of forward and reverse primer pairs (10 µM, Eurofins) or 10 × Quantitect Primer Assay (Qiagen, #249900) was used for mRNA. To measure miRNA, RNA was reverse-transcribed using the miRNA TaqMan MicroRNA Reverse Transcription Kit (Applied Biosystems, #4366597) with specific miRNA RT primers (ThermoFisher, #4427975). cDNA was diluted 1:3 with dH2O before qPCR with Absolute Blue qPCR Mix (Abgene, #AB-4136/B) and the specific Taqman probes (ThermoFisher, #4427975). Runs were performed in ViiA7 (Applied Biosystems) or QuantStudio 7 Flex (Applied Biosystems). Real-time qPCR data were analysed as described elsewhere.

[3] = system: human cardiac fibroblasts (HCF); assay: TaqMan Array Human MicroRNA Cards, miRNA deregulation in HCF
Protocol: PCR amplification of array cards was performed as instructed. After quality control of all real-time qPCRs, cT values were exported and all runs were merged into a single excel file. Recommended baseline correction using relative thresholds to correct for varying reconstitution rates of different Taqman probes was not performed. Low-expressed miRNAs with cT > 32 in more than 1 replicate per treatment were excluded from analysis, before samples were normalized to column mean. Multiple unpaired t tests were performed using GraphPad Prism, deregulations were accepted as discoveries if FDR ≤ 1% (using BKY adjustment). As miRNA identifiers were based on miRbase v14, we converted them to the latest v22 for further analysis using miRBaseConverter. 747 sequences could be converted correctly, while the remaining miRNAs were removed from miRbase due to incorrect annotation (e.g. the sequences of hsa-miR-886-3p and hsa-miR-886-5p are part of VTRNA2-1 [44]) or no evidence of human expression.

[4] = system: human cardiac fibroblasts (HCF); assay: BrdU incorporation, HCF proliferation (first screen); conditions: Homo sapiens, Cardiac fibroblast; HCF, 24 h treatment; read-out: Effective conc. (BrdU), EC50 by BrdU assay
Protocol: 96-well plates (TPP) were coated with 0.1% gelatine and seeded with 7500 HCFs/well. After 72 h, medium was exchanged with serial dilutions of compounds in FGM-3 + 1.6% DMSO + 1% 5-bromo-2′-deoxyuridine (BrdU, Roche, #11647229001), prepared in additional plates. After 24 h, cells were washed twice with DPBS (Gibco, #14190144) before incubation with anti-BrdU:POD (Roche, #11647229001) for 60 min (RT). Readout was performed by measurement of absorbance at 370 nm + 490 nm in a Synergy HT (BioTek) microplate reader. […] As validation, HCF were seeded as before, but treated with serial dilutions of compounds after 24 h. […] After 60 min of incubation (37 °C, in the dark), absorbance at 450 nm + 630 nm was measured maintaining 37 °C and analysed as described before.
To assess screening quality, quality acceptance criteria Z′ (Z prime), SW (signal window), S:B (signal-to-background), S:N (signal-to-noise) were determined following. Average Z′ ≥ 0.5 and SW ≥ 2 were required to accept the screening overall, whereas single plates were rejected from analysis if Z′ < 0.3 or SW < 1.

[5] = system: human iPS-derived cardiomyocytes (hiPS-CM); assay: Caspase-3/7 activation in hiPS-CM; conditions: maximal available concentration
Protocol: (§1) As contrast to activity, toxicity of top six similars and lead compounds was determined by a multiplex measurement of caspase activation and membrane integrity (using LDH release and inclusion of the CellTox Green dye). Briefly, HCFs were seeded as before. After 24 h, cells were treated with serial dilutions of compounds with additional 0.1% CellTox™ Green dye (Promega, #G8741). After 24 h incubation, 5 µL medium was removed from each well, mixed with 95 µL LDH Storage buffer (Promega, #J2380) and frozen for later analysis. 95 µL Caspase-Glo® 3/7 reagent (Promega, #G8090) was added to each well, and after 60 min of incubation luminescence was measured in a Synergy HT. Afterwards, micrographs of brightfield and green fluorescence were taken using a Cytation 1 (BioTek) automated microscope maintaining 37 °C and 5% CO2. Wells were manually checked for co-localization of fluorescence signal with cells in brightfield. On the next day, supernatants in LDH Storage buffer were thawed, and 50 µL was mixed with 50 µL of LDH Detection reagent and luminescence was measured after 60 min of incubation. Dose–response curves were determined as described before. To determine toxicity of the top 3 anti-fibrotic similars in hiPS-CM, 20,000 cells/well were seeded, treated and analysed as above, devoid the fluorescent dye steps.

[6] = system: human iPS-derived cardiomyocytes (hiPS-CM); assay: LDH release in hiPS-CM; conditions: maximal available concentration
Protocol: as §1

[7] = mean of DMSO minus mean of treatment

SMILES: O[C@H]1[C@H]2c3cc4c(cc3CN3CCC(=C[C@@H]1O)[C@H]23)OCO4 [Lycorine, lycorine]
deregulation of fibrosis panel genes / pathways [1]: less deregulation (fold-change) compared to the other treatments
FAP expression (qPCR) [2]: not
MMP2 expression (qPCR) [2]: not
Mean of treatment, hsa-miR-30e-3p-000422 ([3]; cT normalized to column mean): -5.454
Mean of treatment, hsa-miR-16-000391 ([3]; cT normalized to column mean): -6.115
Mean of treatment, hsa-miR-28-3p-002446 ([3]; cT normalized to column mean): -2.622
Mean of treatment, hsa-miR-29a-002112 ([3]; cT normalized to column mean): -7.899
Mean of treatment, hsa-miR-30a-3p-000416 ([3]; cT normalized to column mean): -5.962
Mean of treatment, hsa-miR-31#-002113 ([3]; cT normalized to column mean): -6.203
Mean of treatment, hsa-miR-31-002279 ([3]; cT normalized to column mean): -7.455
Mean of treatment, hsa-miR-34a#-002316 ([3]; cT normalized to column mean): -2.58
Mean of treatment, hsa-miR-125a-5p-002198 ([3]; cT normalized to column mean): -3.201
Mean of treatment, hsa-miR-132-000457 ([3]; cT normalized to column mean): -3.872
Mean of treatment, hsa-miR-140-3p-002234 ([3]; cT normalized to column mean): -1.119
Mean of treatment, hsa-miR-151-3p-002254 ([3]; cT normalized to column mean): -5.192
Mean of treatment, hsa-miR-155-002623 ([3]; cT normalized to column mean): -3.701
Mean of treatment, hsa-miR-186-002285 ([3]; cT normalized to column mean): -4.072
Mean of treatment, hsa-miR-191-002299 ([3]; cT normalized to column mean): -6.639
Mean of treatment, hsa-miR-193b-002367 ([3]; cT normalized to column mean): -4.73
Mean of treatment, hsa-miR-222#-002097 ([3]; cT normalized to column mean): -3.599
Mean of treatment, hsa-miR-222-002276 ([3]; cT normalized to column mean): -9.167
Mean of treatment, hsa-miR-331-000545 ([3]; cT normalized to column mean): -4.63
Mean of treatment, hsa-miR-339-3p-002184 ([3]; cT normalized to column mean): -0.6811
Mean of treatment, hsa-miR-342-3p-002260 ([3]; cT normalized to column mean): -3.089
Mean of treatment, hsa-miR-376a-000565 ([3]; cT normalized to column mean): -1.759
Mean of treatment, hsa-miR-376c-002122 ([3]; cT normalized to column mean): -3.539
Mean of treatment, hsa-miR-409-3p-002332 ([3]; cT normalized to column mean): -4.891
Mean of treatment, hsa-miR-625#-002432 ([3]; cT normalized to column mean): -4.373
Mean of treatment, hsa-miR-1274B-002884 ([3]; cT normalized to column mean): -9.621
Difference / ΔCT, hsa-miR-30e-3p-000422 [3, 7]: 0.9633
Difference / ΔCT, hsa-miR-16-000391 [3, 7]: 0.8517
Difference / ΔCT, hsa-miR-28-3p-002446 [3, 7]: 0.8307
Difference / ΔCT, hsa-miR-29a-002112 [3, 7]: 0.8647
Difference / ΔCT, hsa-miR-30a-3p-000416 [3, 7]: 0.8856
Difference / ΔCT, hsa-miR-31#-002113 [3, 7]: 0.5519
Difference / ΔCT, hsa-miR-31-002279 [3, 7]: 0.598
Difference / ΔCT, hsa-miR-34a#-002316 [3, 7]: 0.8439
Difference / ΔCT, hsa-miR-125a-5p-002198 [3, 7]: 0.6283
Difference / ΔCT, hsa-miR-132-000457 [3, 7]: 1.328
Difference / ΔCT, hsa-miR-140-3p-002234 [3, 7]: 0.7567
Difference / ΔCT, hsa-miR-151-3p-002254 [3, 7]: 0.604
Difference / ΔCT, hsa-miR-155-002623 [3, 7]: 1.386
Difference / ΔCT, hsa-miR-186-002285 [3, 7]: 1.039
Difference / ΔCT, hsa-miR-191-002299 [3, 7]: 0.8243
Difference / ΔCT, hsa-miR-193b-002367 [3, 7]: 0.5576
Difference / ΔCT, hsa-miR-222#-002097 [3, 7]: 1.599
Difference / ΔCT, hsa-miR-222-002276 [3, 7]: 0.8654
Difference / ΔCT, hsa-miR-331-000545 [3, 7]: 0.6606
Difference / ΔCT, hsa-miR-339-3p-002184 [3, 7]: 0.7187
Difference / ΔCT, hsa-miR-342-3p-002260 [3, 7]: 0.7149
Difference / ΔCT, hsa-miR-376a-000565 [3, 7]: 1.019
Difference / ΔCT, hsa-miR-376c-002122 [3, 7]: 0.5396
Difference / ΔCT, hsa-miR-409-3p-002332 [3, 7]: 0.9354
Difference / ΔCT, hsa-miR-625#-002432 [3, 7]: 0.6889
Difference / ΔCT, hsa-miR-1274B-002884 [3, 7]: -0.4297
pEC50 [4]: 5.55

Caspase-3/7 activation [5]: Caspase-3/7 activation
LDH release [6]: increased LDH release
SMILES: COc1cccc2c1C(=O)c1c(O)c3c(c(O)c1C2=O)C[C@@](O)(C(=O)CO)C[C@@H]3O[C@H]1C[C@H](N)[C@H](O)[C@H](C)O1 [doxorubicin]
